Experimental data taken from ChEMBL document CHEMBL2375306, “Antimicrobial peptides containing unnatural amino acid exhibit potent bactericidal activity against ESKAPE pathogens” (Bioorg Med Chem, 2013).
Values after ≈ are worked out from the molar mass of the structure shown. Square brackets hold non-standard residues; d marks the D form. Peptide text beside a SMILES is read from it. ξ: configuration not given here. Pro(3ξ,4ξ-(CH2)4) = O=C(O)[C@H]1NCC2CCCCC21; Tic = O=C(O)[C@@H]1Cc2ccccc2CN1; Dab = NCC[C@H](N)C(=O)O; βAla = NCCC(=O)O

How the values were obtained:
Assay type in all cases: functional
[1] = system: Klebsiella aerogenes; assay: Antibacterial activity against Enterobacter aerogenes after 24 hrs by broth microdilution method
[2] = system: Acinetobacter baumannii; assay: Antibacterial activity against Acinetobacter baumannii WRAIR clinical isolate 13 after 24 hrs by broth microdilution method; details: WRAIR clinical isolate 13, 24 h
[3] = system: Klebsiella pneumoniae; assay: Antibacterial activity against Klebsiella pneumoniae BAMS clinical isolate 07-18 after 24 hrs by broth microdilution method; details: BAMS clinical isolate 07-18, 24 h
[4] = system: Enterococcus faecium; assay: Antibacterial activity against Enterococcus faecium MMC4 after 24 hrs by broth microdilution method; details: MMC4, 24 h
[5] = system: Staphylococcus aureus; assay: Antibacterial activity against methicillin-sensitive Staphylococcus aureus UAMS-1 after 24 hrs by broth microdilution method; details: UAMS-1, 24 h
[6] = system: Pseudomonas aeruginosa; assay: Antibacterial activity against Pseudomonas aeruginosa PAO1 after 24 hrs by broth microdilution method; details: PAO1, 24 h

Structure (SMILES)	MIC [1] [µg/mL]	MIC [2] [µg/mL]	MIC [3] [µg/mL]	MIC [4] [µg/mL]	MIC [5] [µg/mL]	MIC [6] [µg/mL]	MBC [1] [µg/mL]	MBC [2] [µg/mL]	MBC [3] [µg/mL]	MBC [4] [µg/mL]	MBC [5] [µg/mL]	MBC [6] [µg/mL]
CC(C)C[C@H](NC(=O)[C@@H](N)CCCCN)C(=O)N1Cc2ccccc2C[C@H]1C(=O)N1CC2CCCCC2[C@H]1C(=O)NCC(=O)N[C@@H](CCCCN)C(=O)N1Cc2ccccc2C[C@H]1C(=O)N1CC2CCCCC2[C@H]1C(=O)NCC(=O)N[C@@H](Cc1ccccc1)C(=O)N1Cc2ccccc2C[C@H]1C(=O)N1CC2CCCCC2[C@H]1C(=O)NCC(=O)N[C@@H](CCCCN)C(=O)N1Cc2ccccc2C[C@H]1C(=O)N1CC2CCCCC2[C@H]1C(=O)NCC(=O)N[C@@H](Cc1ccccc1)C(=O)N1Cc2ccccc2C[C@H]1C(=O)N1CC2CCCCC2[C@H]1C(=O)NCC(=O)N[C@@H](CCCCN)C(=O)N1Cc2ccccc2C[C@H]1C(=O)N1CC2CCCCC2[C@H]1C(=O)N[C@@H](CCCCN)C(=O)N[C@@H](CCCCN)C(=O)N[C@@H](CCCCN)C(=O)N[C@@H](CCCCN)C(N)=O (stereo not given in full) (H-KL[Tic][Pro(3ξ,4ξ-(CH2)4)]GK[Tic][Pro(3ξ,4ξ-(CH2)4)]GF[Tic][Pro(3ξ,4ξ-(CH2)4)]GK[Tic][Pro(3ξ,4ξ-(CH2)4)]GF[Tic][Pro(3ξ,4ξ-(CH2)4)]GK[Tic][Pro(3ξ,4ξ-(CH2)4)]KKKK-NH2)	50 (≈ 13.9 µM)	12.5 (≈ 3.47 µM)	50 (≈ 13.9 µM)	6.25 (≈ 1.74 µM)	50 (≈ 13.9 µM)	50 (≈ 13.9 µM)	50 (≈ 13.9 µM)	12.5 (≈ 3.47 µM)	50 (≈ 13.9 µM)	25 (≈ 6.95 µM)	50 (≈ 13.9 µM)	50 (≈ 13.9 µM)
CC(C)C[C@H](NC(=O)[C@@H](N)CCCCN)C(=O)N1Cc2ccccc2C[C@H]1C(=O)N1CC2CCCCC2[C@H]1C(=O)NCC(=O)N[C@@H](CCCCN)C(=O)N1Cc2ccccc2C[C@H]1C(=O)N1CC2CCCCC2[C@H]1C(=O)NCCC(=O)N[C@@H](Cc1ccccc1)C(=O)N1Cc2ccccc2C[C@H]1C(=O)N1CC2CCCCC2[C@H]1C(=O)NCC(=O)N[C@@H](CCCCN)C(=O)N1Cc2ccccc2C[C@H]1C(=O)N1CC2CCCCC2[C@H]1C(=O)NCCC(=O)N[C@@H](Cc1ccccc1)C(=O)N1Cc2ccccc2C[C@H]1C(=O)N1CC2CCCCC2[C@H]1C(=O)NCC(=O)N[C@@H](CCCCN)C(=O)N1Cc2ccccc2C[C@H]1C(=O)N1CC2CCCCC2[C@H]1C(=O)N[C@@H](CCCCN)C(=O)N[C@@H](CCCCN)C(=O)N[C@@H](CCCCN)C(=O)N[C@@H](CCCCN)C(N)=O (stereo not given in full) (H-KL[Tic][Pro(3ξ,4ξ-(CH2)4)]GK[Tic][Pro(3ξ,4ξ-(CH2)4)][βAla]F[Tic][Pro(3ξ,4ξ-(CH2)4)]GK[Tic][Pro(3ξ,4ξ-(CH2)4)][βAla]F[Tic][Pro(3ξ,4ξ-(CH2)4)]GK[Tic][Pro(3ξ,4ξ-(CH2)4)]KKKK-NH2)	50 (≈ 13.8 µM)	6.25 (≈ 1.72 µM)	50 (≈ 13.8 µM)	6.25 (≈ 1.72 µM)	50 (≈ 13.8 µM)	25 (≈ 6.9 µM)	100 (≈ 27.6 µM)	25 (≈ 6.9 µM)	50 (≈ 13.8 µM)	25 (≈ 6.9 µM)	50 (≈ 13.8 µM)	50 (≈ 13.8 µM)
CC(C)C[C@H](NC(=O)[C@@H](N)CCCCN)C(=O)N1Cc2ccccc2C[C@H]1C(=O)N1CC2CCCCC2[C@H]1C(=O)N[C@@H](CCCCN)C(=O)NCC(=O)N1Cc2ccccc2C[C@H]1C(=O)N1CC2CCCCC2[C@H]1C(=O)N[C@@H](Cc1ccccc1)C(=O)N1Cc2ccccc2C[C@H]1C(=O)N1CC2CCCCC2[C@H]1C(=O)N[C@@H](CCCCN)C(=O)NCC(=O)N1Cc2ccccc2C[C@H]1C(=O)N1CC2CCCCC2[C@H]1C(=O)N[C@@H](Cc1ccccc1)C(=O)N1Cc2ccccc2C[C@H]1C(=O)N1CC2CCCCC2[C@H]1C(=O)N[C@@H](CCCCN)C(=O)NCC(=O)N1Cc2ccccc2C[C@H]1C(=O)N1CC2CCCCC2[C@H]1C(=O)N[C@@H](CCCCN)C(=O)N[C@@H](CCCCN)C(=O)N[C@@H](CCCCN)C(=O)N[C@@H](CCCCN)C(N)=O (stereo not given in full) (H-KL[Tic][Pro(3ξ,4ξ-(CH2)4)]KG[Tic][Pro(3ξ,4ξ-(CH2)4)]F[Tic][Pro(3ξ,4ξ-(CH2)4)]KG[Tic][Pro(3ξ,4ξ-(CH2)4)]F[Tic][Pro(3ξ,4ξ-(CH2)4)]KG[Tic][Pro(3ξ,4ξ-(CH2)4)]KKKK-NH2)	> 100	12.5 (≈ 3.59 µM)	50 (≈ 14.4 µM)	6.25 (≈ 1.79 µM)	50 (≈ 14.4 µM)	50 (≈ 14.4 µM)	> 100	12.5 (≈ 3.59 µM)	100 (≈ 28.7 µM)	6.25 (≈ 1.79 µM)	50 (≈ 14.4 µM)	50 (≈ 14.4 µM)

Continued, in another order:

MIC [1] [µg/mL]	MIC [2] [µg/mL]	MIC [3] [µg/mL]	MIC [4] [µg/mL]	MIC [5] [µg/mL]	MIC [6] [µg/mL]	Structure (SMILES)	MBC [1] [µg/mL]	MBC [2] [µg/mL]	MBC [3] [µg/mL]	MBC [4] [µg/mL]	MBC [5] [µg/mL]	MBC [6] [µg/mL]
> 100	100 (≈ 32.4 µM)	> 100	12.5 (≈ 4.05 µM)	50 (≈ 16.2 µM)	> 100	CC(C)C[C@H](NC(=O)[C@@H](N)CCCCN)C(=O)N1Cc2ccccc2C[C@H]1C(=O)N1CC2CCCCC2[C@H]1C(=O)N[C@@H](CCCCN)C(=O)N1Cc2ccccc2C[C@H]1C(=O)N1CC2CCCCC2[C@H]1C(=O)N[C@@H](Cc1ccccc1)C(=O)N1Cc2ccccc2C[C@H]1C(=O)N1CC2CCCCC2[C@H]1C(=O)N[C@@H](CCCCN)C(=O)N1Cc2ccccc2C[C@H]1C(=O)N1CC2CCCCC2[C@H]1C(=O)N[C@@H](Cc1ccccc1)C(=O)N1Cc2ccccc2C[C@H]1C(=O)N1CC2CCCCC2[C@H]1C(=O)N[C@@H](CCCCN)C(=O)N1Cc2ccccc2C[C@H]1C(=O)N1CC2CCCCC2[C@H]1C(=O)N[C@@H](CCCCN)C(=O)N[C@@H](CCCNC(=N)N)C(N)=O (stereo not given in full) (H-KL[Tic][Pro(3ξ,4ξ-(CH2)4)]K[Tic][Pro(3ξ,4ξ-(CH2)4)]F[Tic][Pro(3ξ,4ξ-(CH2)4)]K[Tic][Pro(3ξ,4ξ-(CH2)4)]F[Tic][Pro(3ξ,4ξ-(CH2)4)]K[Tic][Pro(3ξ,4ξ-(CH2)4)]KR-NH2)	> 100	> 100	> 100	25 (≈ 8.11 µM)	50 (≈ 16.2 µM)	> 100
50 (≈ 16.2 µM)	25 (≈ 8.1 µM)	50 (≈ 16.2 µM)	12.5 (≈ 4.05 µM)	25 (≈ 8.1 µM)	50 (≈ 16.2 µM)	CC(C)C[C@H](NC(=O)[C@@H](N)CCN)C(=O)N1Cc2ccccc2C[C@H]1C(=O)N1CC2CCCCC2[C@H]1C(=O)N[C@@H](CCN)C(=O)N1Cc2ccccc2C[C@H]1C(=O)N1CC2CCCCC2[C@H]1C(=O)N[C@@H](Cc1ccccc1)C(=O)N1Cc2ccccc2C[C@H]1C(=O)N1CC2CCCCC2[C@H]1C(=O)N[C@@H](CCN)C(=O)N1Cc2ccccc2C[C@H]1C(=O)N1CC2CCCCC2[C@H]1C(=O)N[C@@H](Cc1ccccc1)C(=O)N1Cc2ccccc2C[C@H]1C(=O)N1CC2CCCCC2[C@H]1C(=O)N[C@@H](CCN)C(=O)N1Cc2ccccc2C[C@H]1C(=O)N1CC2CCCCC2[C@H]1C(=O)N[C@@H](CCN)C(=O)N[C@@H](CCN)C(=O)N[C@@H](CCN)C(=O)N[C@@H](CCN)C(N)=O (stereo not given in full) (H-[Dab]L[Tic][Pro(3ξ,4ξ-(CH2)4)][Dab][Tic][Pro(3ξ,4ξ-(CH2)4)]F[Tic][Pro(3ξ,4ξ-(CH2)4)][Dab][Tic][Pro(3ξ,4ξ-(CH2)4)]F[Tic][Pro(3ξ,4ξ-(CH2)4)][Dab][Tic][Pro(3ξ,4ξ-(CH2)4)][Dab][Dab][Dab][Dab]-NH2)	50 (≈ 16.2 µM)	100 (≈ 32.4 µM)	100 (≈ 32.4 µM)	25 (≈ 8.1 µM)	25 (≈ 8.1 µM)	100 (≈ 32.4 µM)
